Assay results from publication PMC11277489, “Novel Piperazine Derivatives of Vindoline as Anticancer Agents” (International Journal of Molecular Sciences, 2024).
Where two headings read alike, the source gives them in different places.

Columns and labels:
[1] = tested on: U251; test: NCI60 five-dose screen, CNS Cancer; assay type: cell-based; conditions: Homo sapiens, U-251; U251, CNS Cancer; five-dose screen; read-out: GI50
[2] = tested on: OVCAR-3; test: NCI60 five-dose screen, Ovarian Cancer; assay type: cell-based; conditions: Homo sapiens; OVCAR-3, Ovarian Cancer; five-dose screen; read-out: GI50
[3] = tested on: MDA-MB-468; test: NCI60 one-dose screen (10 μM), Breast Cancer; assay type: cell-based; conditions: Homo sapiens; 10 μM; MDA-MB-468, Breast Cancer; read-out: Growth percent rate
[4] = tested on: T-47D; test: NCI60 one-dose screen (10 μM), Breast Cancer; assay type: cell-based; conditions: Homo sapiens, T47D; 10 μM; T-47D, Breast Cancer; read-out: Growth percent rate
[5] = tested on: SN12C; test: NCI60 five-dose screen, Renal Cancer; assay type: cell-based; conditions: Homo sapiens, Renal Cancer, five-dose screen, read-out: GI50
[6] = tested on: COLO 205; test: NCI60 five-dose screen, Colon Cancer; assay type: cell-based; conditions: Homo sapiens; COLO 205, Colon Cancer; five-dose screen; read-out: GI50
[7] = tested on: MCF7; test: NCI60 five-dose screen, Breast Cancer; assay type: cell-based; conditions: Homo sapiens; MCF7, Breast Cancer; five-dose screen; read-out: GI50
[8] = tested on: NCI-H322M; test: NCI60 five-dose screen, Non-small Cell Lung Cancer; assay type: cell-based; conditions: Homo sapiens, Non-small Cell Lung Cancer, five-dose screen, read-out: GI50
[9] = tested on: HCT-15; test: NCI60 five-dose screen, Colon Cancer; assay type: cell-based; conditions: Homo sapiens; HCT-15, Colon Cancer; five-dose screen; read-out: GI50
[10] = tested on: LOX IMVI; test: NCI60 five-dose screen, Melanoma; assay type: cell-based; conditions: Homo sapiens, Melanoma, five-dose screen, read-out: GI50
[11] = tested on: NCI/ADR-RES; test: NCI60 one-dose screen (10 μM), Ovarian Cancer; assay type: cell-based; conditions: Homo sapiens, 10 μM, Ovarian Cancer, read-out: Growth percent rate
[12] = tested on: MDA-MB-231/ATCC; test: NCI60 one-dose screen (10 μM), Breast Cancer; assay type: cell-based, human
[13] = tested on: HS 578T; test: NCI60 one-dose screen (10 μM), Breast Cancer; assay type: cell-based; conditions: Homo sapiens; 10 μM; HS 578T, Breast Cancer; read-out: Growth percent rate
[14] = tested on: UACC-257; test: NCI60 five-dose screen, Melanoma; assay type: cell-based; conditions: Homo sapiens; UACC-257, Melanoma; five-dose screen; read-out: GI50
[15] = tested on: TK-10; test: NCI60 one-dose screen (10 μM), Renal Cancer; assay type: cell-based; conditions: Homo sapiens; 10 μM; TK-10, Renal Cancer; read-out: Growth percent rate
[16] = tested on: UACC-62; test: NCI60 five-dose screen, Melanoma; assay type: cell-based; conditions: Homo sapiens; UACC-62, Melanoma; five-dose screen; read-out: GI50
[17] = tested on: HOP-62; test: NCI60 one-dose screen (10 μM), Non-small Cell Lung Cancer; assay type: cell-based; conditions: Homo sapiens; 10 μM; HOP-62, Non-small Cell Lung Cancer; read-out: Growth percent rate
[18] = tested on: SK-OV-3; test: NCI60 one-dose screen (10 μM), Ovarian Cancer; assay type: cell-based; conditions: Homo sapiens; 10 μM; SK-OV-3, Ovarian Cancer; read-out: Growth percent rate
[19] = tested on: OVCAR-8; test: NCI60 five-dose screen, Ovarian Cancer; assay type: cell-based; conditions: Homo sapiens; OVCAR-8, Ovarian Cancer; five-dose screen; read-out: GI50
[20] = tested on: UACC-62; test: NCI60 one-dose screen (10 μM), Melanoma; assay type: cell-based; conditions: Homo sapiens; 10 μM; UACC-62, Melanoma; read-out: Growth percent rate
[21] = tested on: SK-OV-3; test: NCI60 five-dose screen, Ovarian Cancer; assay type: cell-based; conditions: Homo sapiens; SK-OV-3, Ovarian Cancer; five-dose screen; read-out: GI50
[22] = tested on: KM12; test: NCI60 five-dose screen, Colon Cancer; assay type: cell-based; conditions: Homo sapiens; KM12, Colon Cancer; five-dose screen; read-out: GI50
[23] = tested on: U251; test: NCI60 one-dose screen (10 μM), CNS Cancer; assay type: cell-based; conditions: Homo sapiens, U-251; 10 μM; U251, CNS Cancer; read-out: Growth percent rate
[24] = tested on: SR; test: NCI60 one-dose screen (10 μM), Leukemia; assay type: cell-based; conditions: Homo sapiens, 10 μM, Leukemia, read-out: Growth percent rate
[25] = tested on: MDA-MB231ATCC; test: NCI60 five-dose screen, Breast Cancer; assay type: cell-based; conditions: Homo sapiens, MDA-MB-231; MDA-MB231ATCC, Breast Cancer; five-dose screen; read-out: GI50
[26] = tested on: RPMI-8226; test: NCI60 five-dose screen, Leukemia; assay type: cell-based; conditions: Homo sapiens; RPMI-8226, Leukemia; five-dose screen; read-out: GI50
[27] = tested on: NCI-H226; test: NCI60 one-dose screen (10 μM), Non-small Cell Lung Cancer; assay type: cell-based; conditions: Homo sapiens; 10 μM; NCI-H226, Non-small Cell Lung Cancer; read-out: Growth percent rate
[28] = tested on: MDA-MB-468; test: NCI60 five-dose screen, Breast Cancer; assay type: cell-based; conditions: Homo sapiens; MDA-MB-468, Breast Cancer; five-dose screen; read-out: GI50
[29] = tested on: ACHN; test: NCI60 five-dose screen, Renal Cancer; assay type: cell-based; conditions: Homo sapiens, Renal Cancer, five-dose screen, read-out: GI50
[30] = tested on: OVCAR-4; test: NCI60 five-dose screen, Ovarian Cancer; assay type: cell-based; conditions: Homo sapiens; OVCAR-4, Ovarian Cancer; five-dose screen; read-out: GI50
[31] = tested on: OVCAR-5; test: NCI60 one-dose screen (10 μM), Ovarian Cancer; assay type: cell-based; conditions: Homo sapiens; 10 μM; OVCAR-5, Ovarian Cancer; read-out: Growth percent rate
[32] = tested on: M14; test: NCI60 five-dose screen, Melanoma; assay type: cell-based; conditions: Homo sapiens; M14, Melanoma; five-dose screen; read-out: GI50
[33] = tested on: SNB-19; test: NCI60 five-dose screen, CNS Cancer; assay type: cell-based; conditions: Homo sapiens; SNB-19, CNS Cancer; five-dose screen; read-out: GI50
[34] = tested on: A498; test: NCI60 one-dose screen (10 μM), Renal Cancer; assay type: cell-based; conditions: Homo sapiens; 10 μM; A498, Renal Cancer; read-out: Growth percent rate
[35] = tested on: BT-549; test: NCI60 one-dose screen (10 μM), Breast Cancer; assay type: cell-based; conditions: Homo sapiens; 10 μM; BT-549, Breast Cancer; read-out: Growth percent rate
[36] = tested on: CAKI-1; test: NCI60 five-dose screen, Renal Cancer; assay type: cell-based; conditions: Homo sapiens; CAKI-1, Renal Cancer; five-dose screen; read-out: GI50
[37] = tested on: 60 human tumor cell lines (NCI60); test: NCI60 five-dose screen, whole panel and sub-panel means; assay type: cell-based; conditions: Homo sapiens, read-out: GI50 Mean
[38] = tested on: UO-31; test: NCI60 one-dose screen (10 μM), Renal Cancer; assay type: cell-based; conditions: Homo sapiens; 10 μM; UO-31, Renal Cancer; read-out: Growth percent rate
[39] = tested on: RPMI-8226; test: NCI60 one-dose screen (10 μM), Leukemia; assay type: cell-based; conditions: Homo sapiens; 10 μM; RPMI-8226, Leukemia; read-out: Growth percent rate
[40] = tested on: DU-145; test: NCI60 five-dose screen, Prostate Cancer; assay type: cell-based; conditions: Homo sapiens; DU-145, Prostate Cancer; five-dose screen; read-out: GI50
[41] = tested on: HOP-92; test: NCI60 five-dose screen, Non-small Cell Lung Cancer; assay type: cell-based; conditions: Homo sapiens; HOP-92, Non-small Cell Lung Cancer; five-dose screen; read-out: GI50

SMILES: CCC12C=CCN3CCC4(c5cc(NC(=O)CN6CCN(c7ccc(C(F)(F)F)cc7)CC6)c(OC)cc5N(C)C4C(O)(C(=O)OC)C1OC(C)=O)C32 (stereo not drawn) [Compound 17]
- GI50 [1]: 6.03 µM
- GI50 [2]: 2.88 µM
- activity at 10 µM [3]: -62.5%
- activity at 10 µM [4]: 9.79%
- GI50 [5]: 7.76 µM
- GI50 [6]: 3.24 µM
- GI50 [7]: 3.72 µM
- GI50 [8]: 15.1 µM
- GI50 [9]: 3.89 µM
- GI50 [10]: 4.27 µM
- activity at 10 µM [11]: 0.4%
- growth percent rate ([12]; 10 μM one-dose, MDA-MB-231/ATCC breast cancer, negative = lethality): −86.10%
- activity at 10 µM ([12]; Homo sapiens, 10 μM, MDA-MB-231/ATCC, Breast Cancer, read-out: Growth percent rate): -86.2%
- activity at 10 µM [13]: -3.36%
- GI50 [14]: 5.5 µM
- activity at 10 µM [15]: 33.4%
- GI50 [16]: 10.2 µM
- activity at 10 µM [17]: -38.8%
- activity at 10 µM [18]: 6.93%
- GI50 [19]: 8.51 µM
- activity at 10 µM [20]: -54.8%
- GI50 [21]: 3.31 µM
- GI50 [22]: 3.72 µM
- activity at 10 µM [23]: 7.24%
- activity at 10 µM [24]: -11.4%
- GI50 [25]: 11.2 µM
- GI50 [26]: 3.09 µM
- activity at 10 µM [27]: -61.9%
- GI50 [28]: 2.4 µM
- GI50 [29]: 5.62 µM
- GI50 [30]: 3.89 µM
- activity at 10 µM [31]: -41.6%
- GI50 [32]: 3.63 µM
- GI50 [33]: 5.37 µM
- activity at 10 µM [34]: -9.05%
- activity at 10 µM [35]: -50.4%
- GI50 [36]: 2.63 µM
- GI50 ([37]; 60 cell, mean over all 60 cell lines): 5.53 µM
- GI50 ([37]; mean over Breast Cancer panel): 6.11 µM
- GI50 ([37]; mean over CNS Cancer panel): 4.01 µM
- GI50 ([37]; mean over Colon Cancer panel): 4.31 µM
- GI50 ([37]; mean over Leukemia panel): 2.75 µM
- GI50 ([37]; mean over Melanoma panel): 5.89 µM
- GI50 ([37]; mean over Non-small Cell Lung Cancer panel): 7.29 µM
- GI50 ([37]; mean over Ovarian Cancer panel): 6.48 µM
- GI50 ([37]; mean over Prostate Cancer panel): 4.88 µM
- GI50 ([37]; mean over Renal Cancer panel): 6.01 µM
- activity at 10 µM [38]: 0.08%
- activity at 10 µM [39]: -14.1%
- GI50 [40]: 6.46 µM
- GI50 [41]: 2.57 µM
